Consider three compounds from patent US20230277508A1, “USE OF COMPOUND AS CYP2E1 INHIBITOR” (SHANGHAI LING XI BIOTECHNOLOGY DEVELOPMENT CO., LTD., priority 2020, published 2023).

Common to all, as to format: biochemical
In one data set the target is T1, CYP2A6 (Homo sapiens, UniProt P11509).
T1 construct: With a mixed liver microsome of a healthy individual as a research object; from tissue; host or cells: mixed (pooled) human liver microsomes of healthy individuals
Description: Determination of selectivity of a CYP2E1 inhibitor: CYP2A6. To be noted: mixed human liver microsome, 2.5 μM coumarin probe; read-out: IC50 for 2A6 inhibition. The source says: (§1) With a mixed liver microsome of a healthy individual as a research object, probe drugs CYP1A2, CYP2A6, CYP2B6, CYP2C8, CYP2C9, CYP2C19, CYP2D6, CYP2E1, and CYP3A4 were selected to determine an in vitro inhibitory effect of an inhibitor to be tested on the metabolism of the probe drugs CYP1A2, CYP2A6, CYP2B6, CYP2C8, CYP2C9, CYP2C19, CYP2D6, CYP2E1, and CYP3A4 for the mixed liver microsome of the healthy human, and the selectivity of the inhibitor to be tested for a CYP2E1 inhibitory effect was evaluated.
(§2) The CYP1A2 probe is 6.25 μM to 800 μM phenacetin or 27.5 μM to 12,520 μM caffeine; • the CYP2A6 probe is 0.156 μM to 20 μM coumarin or 12.5 μM to 2,000 μM nicotine; • the CYP2B6 probe is 7.8 μM to 500 μM bupropion or 0.25 mM to 30 mM cyclophosphamide; • the CYP2C8 probe is 2.5 μM to 80 μM paclitaxel or 0.125 μM to 128 μM amodiaquine; • the CYP2C9 probe is 31.25 μM to 2,000 μM tolbutamide or 0.1 μM to 200 μM diclofenac; • the CYP2C19 probe is 3.9 μM to 500 μM omeprazole or 1.95 μM to 1,000 μM mephenytoin; • the CYP2D6 probe is 0.625 μM to 96 μM dextromethorphan or 0.0195 μM to 80 μM propafenone; and • the CYP3A4 probe is 0.39 μM to 50 μM midazolam or 1.98 μM to 1,000 μM testosterone.
(§3) An incubation system in a total volume of 100 μL was adopted, including a substrate, an inhibitor of different concentrations, a liver microsomal protein, and PBS. […]

For data set [1], the target named is T2, human liver microsome CYP2E1 (Homo sapiens, UniProt P05181).
T2 construct: metabolic activity of a mixed liver microsome CYP2E1 of a healthy individual; from tissue; host or cells: mixed (pooled) human liver microsomes of healthy individuals
The data set is described as follows: Determination of IC50 for a CYP2E1 inhibitory effect (CZX probe, mixed liver microsome). Conditions: for inhibitory effect on CYP2E1 (in words): in vitro, method of Example 8; for pIC50: mixed liver microsome of healthy individuals 0.3 mg/mL, 62.5 μM CZX, 1 mM NADPH, 30 min, read-out: IC50 for 2E1 inhibition. The procedure: CZX was used as a probe substrate to detect an inhibitory effect of an inhibitor to be tested on the metabolic activity of a mixed liver microsome CYP2E1 of a healthy individual (IC50: half inhibition concentration; Ki: inhibition constant; the smaller the IC50 and the smaller the Ki, the higher the inhibition intensity of the inhibitor), thereby determining an inhibitory effect of the inhibitor to be tested on the human liver microsome CYP2E1.
An incubation system in a total volume of 100 μL was adopted, including a substrate, an inhibitor of different concentrations, a liver microsomal protein, and phosphate-buffered saline (PBS). The incubation system was pre-incubated in a 37° C. water bath for 5 min, reduced coenzyme was added to allow a reaction for 30 min, and then the reaction was terminated in an ice bath. In a specific experiment, a concentration of an inhibitor can be selected as required.
In this example, the incubation system includes 62.5 μM CZX, 100 mM (pH=7.4) PBS, 0.3 mg/mL liver microsomal protein, and 1 mM NADPH.
In this example, the reaction is terminated with 1 mL of ethyl acetate. In other preferred examples, the reaction may also be terminated with 1 mL of methyl tert-butyl ether (MTBE), 1 mL of diethyl ether, or 100 μL of methanol.
In general terms: Microsomes from liver hold many membrane-bound enzymes, among them those of drug oxidation.

Another data set addresses T3, CYP2C9 (Homo sapiens, UniProt P11712).
T3 construct: With a mixed liver microsome of a healthy individual as a research object; from tissue; host or cells: mixed (pooled) human liver microsomes of healthy individuals
The data set is described as follows: Determination of selectivity of a CYP2E1 inhibitor: CYP2C9. To be noted: mixed human liver microsome, 250 μM tolbutamide probe; read-out: IC50 of the inhibition for CYP2C9.
Text: as §1, §2, §3

pIC50: −log10 of the molar value.

T2 sequence (P05181 whole entry): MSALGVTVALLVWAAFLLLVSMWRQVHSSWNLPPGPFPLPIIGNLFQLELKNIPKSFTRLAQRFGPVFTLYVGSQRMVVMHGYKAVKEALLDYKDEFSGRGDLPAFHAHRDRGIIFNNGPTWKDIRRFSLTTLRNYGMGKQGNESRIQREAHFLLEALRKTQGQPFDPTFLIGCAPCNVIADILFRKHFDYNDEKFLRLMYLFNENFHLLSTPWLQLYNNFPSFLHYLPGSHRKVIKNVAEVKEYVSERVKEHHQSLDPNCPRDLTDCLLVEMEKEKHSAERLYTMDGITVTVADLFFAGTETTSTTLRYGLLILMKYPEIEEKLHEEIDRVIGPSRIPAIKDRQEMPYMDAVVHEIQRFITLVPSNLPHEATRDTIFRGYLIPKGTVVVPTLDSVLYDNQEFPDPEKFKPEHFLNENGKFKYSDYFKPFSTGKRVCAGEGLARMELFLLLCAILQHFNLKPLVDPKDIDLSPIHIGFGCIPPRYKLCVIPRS
T3 sequence (P11712 whole entry): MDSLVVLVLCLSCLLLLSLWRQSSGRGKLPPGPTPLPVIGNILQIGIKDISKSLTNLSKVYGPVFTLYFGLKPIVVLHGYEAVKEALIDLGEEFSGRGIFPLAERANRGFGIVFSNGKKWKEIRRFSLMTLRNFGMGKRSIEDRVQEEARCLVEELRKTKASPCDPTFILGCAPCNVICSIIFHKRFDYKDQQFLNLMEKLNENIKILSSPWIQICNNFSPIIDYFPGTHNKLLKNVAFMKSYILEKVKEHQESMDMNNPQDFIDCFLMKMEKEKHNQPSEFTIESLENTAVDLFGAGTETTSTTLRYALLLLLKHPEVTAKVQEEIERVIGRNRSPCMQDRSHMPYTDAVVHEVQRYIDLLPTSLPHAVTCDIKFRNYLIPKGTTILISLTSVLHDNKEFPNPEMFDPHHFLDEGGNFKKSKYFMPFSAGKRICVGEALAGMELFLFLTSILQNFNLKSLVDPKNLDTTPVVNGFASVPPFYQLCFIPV
T1 sequence (P11509 whole entry): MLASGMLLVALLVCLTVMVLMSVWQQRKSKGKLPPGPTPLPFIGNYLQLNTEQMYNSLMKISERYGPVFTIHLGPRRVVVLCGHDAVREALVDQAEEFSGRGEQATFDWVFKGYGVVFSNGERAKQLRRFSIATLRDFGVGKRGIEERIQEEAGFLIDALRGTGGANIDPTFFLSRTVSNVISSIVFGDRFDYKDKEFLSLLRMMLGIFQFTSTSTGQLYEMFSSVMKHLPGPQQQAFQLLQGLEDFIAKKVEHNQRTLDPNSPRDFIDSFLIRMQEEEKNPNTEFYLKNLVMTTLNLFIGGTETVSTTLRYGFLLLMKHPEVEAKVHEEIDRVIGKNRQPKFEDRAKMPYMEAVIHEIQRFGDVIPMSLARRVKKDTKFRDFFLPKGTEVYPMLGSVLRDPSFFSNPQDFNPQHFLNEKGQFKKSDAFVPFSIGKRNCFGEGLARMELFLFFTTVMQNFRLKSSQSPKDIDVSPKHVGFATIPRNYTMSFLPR

For the compound `CCc1nc(COC(=O)c2cccn2Cc2ccncc2)cs1` [SMI1], the figures for the pIC50 (at CYP2A6; in data set [1]; at CYP2C9) were 4.25, 5.10 and 5.73, respectively. In addition, the “inhibitory effect on CYP2E1 (in words)” value in data set [1] is given as “significant inhibitory effect”.

For the compound `CO/N=C(\C)c1scnc1C` [SMI8], in data set [1], the “inhibitory effect on CYP2E1 (in words)” value is given as “significant inhibitory effect” and the negative-log IC50 (pIC50) (as a rule, the IC50 on a negative log10 scale, so that one unit is a factor of ten) was 4.77.

For `COc1cccc(/C=C/C(=O)c2scnc2C)c1` [SMI10], in data set [1], the “inhibitory effect on CYP2E1 (in words)” value is “slight inhibitory effect” and the negative logarithm of the IC50 (pIC50) is 3.94.
